According to patent US9241488B2, “Azole derivative, method for producing azole derivative, and intermediate compound” (KUREHA CORPORATION, priority 2011, dated 2016):

Legend:
[1] = tested on: wheat leaf blight-causing microorganisms; assay: Anti-bacterial effect on wheat leaf blight-causing microorganisms (PDA plate, mycelial growth inhibition); format: cell-based, Septoria tritici; conditions: 336 h; 1.25 mg/L in PDA plate medium, 25° C., 14 days; read-out: Growth inhibition grade
[2] = tested on: wheat-brown-rust-causing microorganisms; assay: Controlling effect on wheat brown rust (spray, pot test); format: in vivo, Puccinia recondita; conditions: 1 mg/L sprayed at 1,000 L/ha, wheat NORIN No. 61, 9 to 14 days after inoculation
Method in brief: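 Two-leaf wheat (NORIN No. 61) sprayed with formulation at 1 mg/L, 1,000 L/ha, then spray-inoculated with rust spores and held 48 hours at 25° C, high humidity, then greenhouse.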

[3] = tested on: Wheat pink snow mold (Microdochium nivale); assay: Anti-bacterial effect on various microorganisms (plate medium), M.n; format: cell-based; conditions: Microdochium nivale, read-out: Growth inhibition grade M.n
[4] = tested on: Rice bacterial seeding blight (Rhizopus oryzae); assay: Anti-bacterial effect on various microorganisms (plate medium), R.o; format: cell-based; conditions: Rhizopus arrhizus, read-out: Growth inhibition grade R.o
[5] = tested on: wheat brown rust-causing microorganisms; assay: Controlling effect on wheat brown rust caused by seed treatment (pot test); format: in vivo, Puccinia recondita; conditions: 2 mg compound per 1 g wheat seeds, inoculated 21 days after seeding, evaluated 14 days after inoculation
Protocol: An efficacy against wheat brown rust was evaluated by performing a pot test. […] The pots were kept in a greenhouse with supplying water underneath. Twenty one days after the seeding, wheat brown rust-causing microorganisms was inoculated, and the pots were stored in a humidity chamber for 2 days. The pots were kept again in a greenhouse with supplying water underneath. Fourteen days after the inoculation, a lesion degree was evaluated, and a protective value was calculated. The protective value was calculated with use of the following formula, and was defined as a wheat brown rust protective value. Protective value=(1−lesion degree in treated plot/lesion degree in untreated plot)×100(%)

[6] = tested on: wheat; assay: Harmful effect of necrosis to wheat caused by seed treatment (pot test); format: in vivo; conditions: 2 mg compound per 1 g wheat seeds, 31 days after seeding, smaller index = smaller harmful effect
Protocol: Thirty one days after the seeding, a degree of necrosis (necrosis area ratio) in wheat was evaluated. By using criteria shown in Table 7, necrosis indexes were calculated on the basis of the necrosis area ratio.

[7] = tested on: wheat; assay: Growth inhibition test for wheat caused by seed treatment (pot test); conditions: 2 mg compound per 1 g wheat seeds, 36 days after seeding, larger index = smaller damage
Protocol: Harmful effect (growth inhibition) to wheat was evaluated by performing a pot test. Compounds (2 mg) of the present invention and a comparative compound (2 mg) were weighed, and those compounds were each dissolved in DMSO (18 μl). Chemical thus prepared were applied to wheat seeds (1 g) in a vial, and eight wheat seeds were seeded in a pot of 80 cm^2. The seeds were cultivated in a greenhouse with supplying water underneath. 36 days after the seeding, damage (growth inhibition) was evaluated.
The damage (growth inhibition) index was calculated on the basis of the following table. As the growth inhibition index becomes larger, the damage of growth inhibition caused by the treatment of the chemicals becomes smaller.

[8] = tested on: Wheat Septoria nodorum blotch microorganism (Phaeosphaeria nodorum); assay: Anti-bacterial effect of V′ compounds on various microorganisms (plate medium), P.n; format: cell-based; conditions: 5 mg/L
[9] = tested on: G.g; assay: Anti-bacterial effect of V′ compounds on various microorganisms (plate medium), G.g; format: cell-based; conditions: 5 mg/L
[10] = tested on: Barley stripe (Pyrenophora graminea); assay: Anti-bacterial effect of V′ compounds on various microorganisms (plate medium), P.g; format: cell-based; conditions: 5 mg/L
[11] = tested on: Rice blast (Pyricularia oryzae); format: cell-based; conditions: 5 mg/L
[12] = tested on: Wheat leaf blight (Septoria tritici); assay: Anti-bacterial effect of V′ compounds on various microorganisms (plate medium), S.t; format: cell-based; conditions: 5 mg/L
[13] = tested on: Barley leaf blotch (Rhynchosporium secalis); assay: Anti-bacterial effect of V′ compounds on various microorganisms (plate medium), R. sec; format: cell-based; conditions: 5 mg/L
[14] = tested on: Snow mold of winter wheat (Microdochium nivale); assay: Anti-bacterial effect of V′ compounds on various microorganisms (plate medium), M.n; format: cell-based; conditions: 5 mg/L
[15] = tested on: Swollen rice seedling (Rhizopus oryzae); assay: Anti-bacterial effect of V′ compounds on various microorganisms (plate medium), R.o; format: cell-based; conditions: 5 mg/L

SMILES	inhibition at 1.25 µg/mL [1]	Protective value [2]	inhibition at 1.25 µg/mL ([3]; 1.25 mg/L)	inhibition at 5 µg/mL ([3]; 5 mg/L)	inhibition at 1.25 µg/mL ([4]; 1.25 mg/L)	inhibition at 5 µg/mL ([4]; 5 mg/L)	wheat brown rust protective value [5]	necrosis index [6]	damage (growth inhibition) index [7]	Anti-bacterial effect index against various microorganisms P.n [8]	Anti-bacterial effect index against various microorganisms G.g [9]	Anti-bacterial effect index against various microorganisms P.g [10]	Anti-bacterial effect index against various microorganisms P.o [11]	Anti-bacterial effect index against various microorganisms S.t [12]	Anti-bacterial effect index against various microorganisms R. sec [13]	Anti-bacterial effect index against various microorganisms M.n [14]	Anti-bacterial effect index against various microorganisms R.o [15]
CC1(C)CC[C@H](Cc2ccc(Cl)cc2)[C@@]1(O)Cn1cncn1 (racemic) [Compound (1), reference compound]	60 to 80%	3 (41 to 60)	20 to 40%	> 80%	60 to 80%	> 80%	95%	1 (1% or more but less than 5%)	2 (Less than 60% but 40% or more)	–	–	–	–	–	–	–	–
OC1(Cn2cncn2)C(Cc2ccc(Cl)cc2)CCC12COCOC2 (centres unmarked) [Compound V′-d, 2-(4-chlorobenzyl)-1-(1H-1,2,4-triazole-1-ylmethyl)-7,9-dioxaspiro[4,5]decane-1-ol]	–	4 (61 to 80)	–	–	–	–	100%	–	–	5 (% Mycerial growth inhibition of 80% or higher)	5 (% Mycerial growth inhibition of 80% or higher)	5 (% Mycerial growth inhibition of 80% or higher)	5 (% Mycerial growth inhibition of 80% or higher)	4 (% Mycerial growth inhibition of less than 80 to 60% or higher)	5 (% Mycerial growth inhibition of 80% or higher)	3 (% Mycerial growth inhibition of less than 60 to 40% or higher)	5 (% Mycerial growth inhibition of 80% or higher)
CC1OCC2(CCC(Cc3ccc(Cl)cc3)C2(O)Cn2cncn2)CO1 (centres unmarked) [Compound V′-e, 2-(4-chlorobenzyl)-8-methyl-1-(1H-1,2,4-triazole-1-ylmethyl)-7,9-dioxaspiro[4,5]decane-1-ol]	> 80%	–	–	–	–	–	100%	–	–	5 (% Mycerial growth inhibition of 80% or higher)	5 (% Mycerial growth inhibition of 80% or higher)	5 (% Mycerial growth inhibition of 80% or higher)	5 (% Mycerial growth inhibition of 80% or higher)	5 (% Mycerial growth inhibition of 80% or higher)	5 (% Mycerial growth inhibition of 80% or higher)	5 (% Mycerial growth inhibition of 80% or higher)	5 (% Mycerial growth inhibition of 80% or higher)
